Laboratory results reported in patent publication EP1806348A2, “Pyrido (2,3-D)Pyrimidines as inhibitors of cellular proliferation” (Warner-Lambert Company LLC, priority 1997, dated 1998).

Columns and labels:
c-Src = c-Src (Homo sapiens, UniProt P12931); assay: c-Src protein kinase assay; assay type: biochemical; conditions: Table 5
Protocol: C-Src kinase was purified from baculovirus infected insect cell lysates using an antipeptide monoclonal antibody directed against the N-terminal amino acids (amino acids 2-17) of c-Src. The antibody, covalently linked to 0.65 µm latex beads, was added to a suspension of insect cell lysis buffer comprised of 150 mM NaCl, 50 mM Tris pH 7.5, 1 mM DTT, 1% NP-40,2 mM EGTA, 1 mM sodium vanadate, 1 mM PMSF, 1 µg/mL each of leupeptin, pepstatin, and aprotinin. Insect cell lysate containing c-Src protein was incubated with these beads for 3 to 4 hours at 4°C with rotation. At the end of the lysate incubation, the beads were rinsed three times in lysis buffer, resuspended in lysis buffer containing 10% glycerol, and frozen. These latex beads were thawed, rinsed three times in assay buffer (40 mM Tris, pH 7.5, […]) and suspended in the same buffer. In a Millipore 96-well plate with a 0.65 µm polyvinylidine membrane bottom were added the reaction components: 10 µL c-Src beads, 10 µL of 2.5 mg/mL poly GluTyr substrate, 5 µM ATP containing 0.2 µCi labeled ^32P-ATP, 5 µL DMSO containing inhibitors or as a solvent control, and buffer to make the final volume 125 µL. The reaction was started at room temperature by addition of the ATP and quenched 10 minutes later by the addition of 125 µL of 30% TCA, 0.1 M sodium pyrophosphate for 5 minutes on ice. […] The filters were then punched, counted in a liquid scintillation counter, and the data examined for inhibitory activity in comparison to a known inhibitor such as erbstatin. […]

cdc2/cyclinB = cdc2/cyclinB (Homo sapiens, UniProt P06493); assay: Cyclin-dependent kinase assay (cdc2/cyclinB); assay type: biochemical; conditions: Table 1; read-out: cdk1/B IC50
Protocol: (§1) All components except the ATP were added to the wells, and the plate was placed on a plate mixer for 2 minutes. […] The reaction was terminated by addition of 0.1 mL of 20% TCA. The plate was kept at 4°C for at least 1 hour to allow the substrate to precipitate. The wells were then washed five times with 0.2 mL of 10% TCA and ^32P incorporation determined with a beta plate counter (Wallac Inc., Gaithersburg, MD).

cdk2/cyclinA = cdk2/cyclinA (Homo sapiens, UniProt P24941); assay: Cyclin-dependent kinase assay (cdk2/cyclinA); assay type: biochemical; conditions: Table 1
Protocol: as §1

[1] = tested on: MCF-7 human mammary tumor xenografts; assay: MCF-7 tumor xenograft growth inhibition in mice; assay type: in vivo, female nude mice; conditions: doses of 5 to 20 mg/kg, schedule q12h × 2; days 1-14
[2] = Plasma levels in mice after dosing; assay type: in vivo, nude mice; conditions: at 30 minutes following dosing
Protocol: For example, the compound of Example 60 was administered orally at 5 mg/kg to mice, and plasma levels of about 200 nM were measured at 30 minutes following dosing. The compound was also administered intraperitoneally at 12 mg/kg and produced a peak plasma concentration of 10,000 nM at 30 minutes following dosing.

cdk4/D = cdk4/D (Homo sapiens, UniProt P11802); assay: Cyclin-dependent kinase 4 (cdk4) enzyme assay, 32P incorporation into retinoblastoma; assay type: biochemical; conditions: Table 1; 25 µM ATP, retinoblastoma substrate
Protocol: A typical assay, for instance, measures inhibitory activity against the cyclin D dependent kinase 4 enzyme (cdk4/D). […] The cdk 4 assay was carried out as follows.
as §1, with “trichloroacetic acid (TCA).” for “TCA.”, “incorporation was” for “incorporation”

cdk2/cyclinE = cdk2/cyclinE (Homo sapiens, UniProt P24941); assay: Cyclin-dependent kinase assay (cdk2/cyclinE); assay type: biochemical; conditions: Table 1; read-out: cdk2/E IC50
Protocol: as §1

Sequence of cdk4/D (P11802 whole entry): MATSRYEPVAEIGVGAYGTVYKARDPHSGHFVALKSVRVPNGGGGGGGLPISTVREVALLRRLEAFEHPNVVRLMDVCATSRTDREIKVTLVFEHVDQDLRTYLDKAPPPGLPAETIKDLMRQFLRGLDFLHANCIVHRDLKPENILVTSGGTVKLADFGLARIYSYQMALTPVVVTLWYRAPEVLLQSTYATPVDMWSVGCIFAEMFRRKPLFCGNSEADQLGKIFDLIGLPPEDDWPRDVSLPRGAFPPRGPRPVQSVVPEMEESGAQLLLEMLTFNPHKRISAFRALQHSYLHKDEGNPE
Sequence of cdk4/D (P24385 whole entry, further chain): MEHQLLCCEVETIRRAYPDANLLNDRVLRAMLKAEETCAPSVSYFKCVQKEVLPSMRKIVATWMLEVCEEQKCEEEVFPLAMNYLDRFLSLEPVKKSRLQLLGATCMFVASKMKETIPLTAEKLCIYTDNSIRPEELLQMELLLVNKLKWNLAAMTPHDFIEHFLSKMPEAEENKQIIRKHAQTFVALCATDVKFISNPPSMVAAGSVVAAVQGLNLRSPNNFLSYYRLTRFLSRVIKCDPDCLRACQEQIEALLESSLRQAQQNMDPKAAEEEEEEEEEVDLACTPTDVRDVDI
Sequence of c-Src (P12931 whole entry, the tested form may be a part): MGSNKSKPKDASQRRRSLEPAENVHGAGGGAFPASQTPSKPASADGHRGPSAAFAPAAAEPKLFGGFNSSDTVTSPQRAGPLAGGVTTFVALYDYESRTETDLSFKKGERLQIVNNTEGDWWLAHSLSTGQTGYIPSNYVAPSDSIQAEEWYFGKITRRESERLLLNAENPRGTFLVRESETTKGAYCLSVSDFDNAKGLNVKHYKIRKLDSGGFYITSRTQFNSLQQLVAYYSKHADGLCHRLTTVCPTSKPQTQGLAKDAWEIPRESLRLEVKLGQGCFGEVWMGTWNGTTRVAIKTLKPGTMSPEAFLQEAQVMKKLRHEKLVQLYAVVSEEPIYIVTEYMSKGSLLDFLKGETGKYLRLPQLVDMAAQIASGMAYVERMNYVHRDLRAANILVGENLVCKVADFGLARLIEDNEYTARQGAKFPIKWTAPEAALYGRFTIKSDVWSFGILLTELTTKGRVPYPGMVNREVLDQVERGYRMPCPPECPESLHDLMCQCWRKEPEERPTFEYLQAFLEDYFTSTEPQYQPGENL
Sequence of cdc2/cyclinB (P06493 whole entry): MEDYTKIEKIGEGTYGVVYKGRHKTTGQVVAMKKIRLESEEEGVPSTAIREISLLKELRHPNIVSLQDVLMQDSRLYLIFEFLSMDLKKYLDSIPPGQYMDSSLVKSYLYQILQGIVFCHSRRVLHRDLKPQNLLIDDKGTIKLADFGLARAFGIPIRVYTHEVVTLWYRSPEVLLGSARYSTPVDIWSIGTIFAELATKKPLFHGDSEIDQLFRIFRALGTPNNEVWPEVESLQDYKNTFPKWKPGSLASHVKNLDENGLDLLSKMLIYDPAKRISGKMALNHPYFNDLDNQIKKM
Sequence of cdc2/cyclinB (P14635 whole entry, further chain): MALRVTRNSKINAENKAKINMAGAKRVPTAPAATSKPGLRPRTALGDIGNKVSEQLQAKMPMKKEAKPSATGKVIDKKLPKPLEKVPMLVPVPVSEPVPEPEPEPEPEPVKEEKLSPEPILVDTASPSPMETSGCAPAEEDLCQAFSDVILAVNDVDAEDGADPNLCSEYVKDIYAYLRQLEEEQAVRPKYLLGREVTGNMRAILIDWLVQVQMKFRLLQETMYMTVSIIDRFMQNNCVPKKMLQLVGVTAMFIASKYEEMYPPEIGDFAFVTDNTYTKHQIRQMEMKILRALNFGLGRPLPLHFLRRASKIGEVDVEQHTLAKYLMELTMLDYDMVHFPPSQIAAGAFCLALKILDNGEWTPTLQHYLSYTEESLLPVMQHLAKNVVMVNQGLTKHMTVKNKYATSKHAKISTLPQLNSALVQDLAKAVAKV

In the case of CC(C)n1c(=O)ccc2cnc(Nc3ccc(N4CCN(C)CC4)cc3)nc21 [Example 60, 8-Isopropyl-2-[4-(4-methylpiperazin-1-yl)-phenylamino]-8H-pyrido[2,3-d]pyrimidin-7-one], the IC50 (c-Src) is reported as 890 nM, the IC50 (cdc2/cyclinB) is reported as 675 nM and the IC50 (cdk2/cyclinA) is reported as 58 nM. For the same molecule, the tumor growth inhibitions [1] was “statistically insignificant tumor growth inhibitions”, the peak plasma concentration ([2]; intraperitoneally at 12 mg/kg) was 10,000 nM and the concentration at 30 min ([2]; nude, mouse, plasma, po, mice, orally at 5 mg/kg) was ~200 nM. For the same molecule, the IC50 (cdk4/D) was 32 nM and the IC50 (cdk2/cyclinE) was 270 nM.
